Data published in US20090099195A1 (ASTRAZENECA AB, priority 2007, published 2009).

Target: T1, hP2X3 (human Purinergic P2X receptors subtype 3), clone B (Homo sapiens, UniProt P56373)
T1 sequence (P56373 1-397): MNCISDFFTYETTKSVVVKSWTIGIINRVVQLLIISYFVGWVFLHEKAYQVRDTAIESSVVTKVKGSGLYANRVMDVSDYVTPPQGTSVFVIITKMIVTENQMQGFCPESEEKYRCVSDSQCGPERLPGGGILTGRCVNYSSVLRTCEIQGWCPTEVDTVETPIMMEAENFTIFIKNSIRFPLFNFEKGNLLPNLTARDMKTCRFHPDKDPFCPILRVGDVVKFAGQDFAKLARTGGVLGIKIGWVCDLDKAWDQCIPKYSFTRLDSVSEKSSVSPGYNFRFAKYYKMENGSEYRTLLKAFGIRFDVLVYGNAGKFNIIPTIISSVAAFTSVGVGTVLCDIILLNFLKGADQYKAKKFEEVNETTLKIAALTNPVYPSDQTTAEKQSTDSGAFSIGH
Test: hP2X3 FLIPR calcium (Fluo-4) antagonist assay, clone B
Conditions: Human P2X3 FLIPR Clone B IC50 (nM), RLE cells expressing hP2X3 clone B (NM_002559); agonist 500 nM α,β-methylene-ATP

CCN1CCN(c2nc(NC(c3ccccc3)c3ccccc3)c3c(n2)C(=O)N(C(C)C)C3)CC1 [Example 78, 4-(Benzhydryl-amino)-2-(4-ethyl-piperazin-1-yl)-6-isopropyl-5,6-dihydro-pyrrolo[3,4-d]pyrimidin-7-one]
IC50: 400 nM

CC(=O)N1CCN(c2nc(NC(c3ccc(Cl)cc3)C3CC3)c3c(n2)C(=O)N(C(C)C)C3)CC1 (centres unmarked) [Example 27, 2-(4-acetylpiperazin-1-yl)-4-{[(4-chlorophenyl)(cyclopropyl)methyl]amino}-6-isopropyl-5,6-dihydro-7H-pyrrolo[3,4-d]pyrimidin-7-one]
IC50: 140 nM

CC(C)N1Cc2c(NCc3cnc4ccccc4c3)nc(N3CCN4CCCC4C3)nc2C1=O (stereo in doubt) [Example 141, (R)-2-(Hexahydro-pyrrolo[1,2-a]pyrazin-2-yl)-6-isopropyl-4-[(quinolin-3-ylmethyl)-amino]-5,6-dihydro-pyrrolo[3,4-d]pyrimidin-7-one]
IC50: 7600 nM

CC(C)N1Cc2c(NCc3cnc4ccccc4c3)nc(N3CCN(C)C(=O)C3)nc2C1=O [Example 210, 6-isopropyl-2-(4-methyl-3-oxopiperazin-1-yl)-4-(quinolin-3-ylmethylamino)-5H-pyrrolo[3,4-d]pyrimidin-7(6H)-one]
IC50: 320 nM

CC(C)N1Cc2c(NCc3cnc4ccccc4c3)nc(N3CCCC3CN3CCOCC3)nc2C1=O (centres unmarked) [Example 212, 6-isopropyl-2-[2-(morpholinomethyl)pyrrolidin-1-yl]-4-(3-quinolylmethylamino)-5H-pyrrolo[3,4-d]pyrimidin-7-one]
IC50: 4600 nM

CC(=O)N1CCN(c2nc(NCc3cc4ccccc4n3C)c3c(n2)C(=O)N(C(C)C)C3)CC1 [Example 237, 2-(4-acetylpiperazin-1-yl)-6-isopropyl-4-((1-methyl-1H-indol-2-yl)methylamino)-5H-pyrrolo[3,4-d]pyrimidin-7(6H)-one]
IC50: 500 nM

CC(=O)N1CCN(c2nc(NC(C)c3nc(-c4ccccc4)no3)c3c(n2)C(=O)N(C(C)C)C3)CC1 (centres unmarked) [Example 13, 2-(4-acetylpiperazin-1-yl)-6-isopropyl-4-{[1-(3-phenyl-1,2,4-oxadiazol-5-yl)ethyl]amino}-5,6-dihydro-7H-pyrrolo[3,4-d]pyrimidin-7-one]
IC50: 220 nM

CC(=O)N1CCN(c2nc(N[C@H](C)c3ccc(OC(C)C)cc3)c3c(n2)C(=O)N(C(C)C)C3)CC1 [Example 176, (R)-2-(4-acetylpiperazin-1-yl)-4-(1-(4-isopropoxyphenyl)ethylamino)-6-isopropyl-5H-pyrrolo[3,4-d]pyrimidin-7(6H)-one]
IC50: 80 nM

CC(=O)N1CCN(c2nc3c(c(N(Cc4ccc(F)cc4)C4CCCC4)n2)CN(C(C)C)C3=O)CC1 [Example 4, 2-(4-acetylpiperazin-1-yl)-4-[cyclopentyl(4-fluorobenzyl)amino]-6-isopropyl-5,6-dihydro-7H-pyrrolo[3,4-d]pyrimidin-7-one]
IC50: 800 nM

CC(=O)N1CCN(c2nc(N[C@H](C)c3ccc(Cl)c(C(F)(F)F)c3)c3c(n2)C(=O)N(C(C)C)C3)CC1 [Example 171, (R)-2-(4-acetylpiperazin-1-yl)-4-(1-(4-chloro-3-(trifluoromethyl)phenyl)ethylamino)-6-isopropyl-5H-pyrrolo[3,4-d]pyrimidin-7(6H)-one]
IC50: 290 nM

CC(=O)N1CCN(c2nc3c(c(N(C)Cc4cnc5ccccc5c4)n2)CN(C(C)C)C3=O)CC1 [Example 346, 2-(4-acetylpiperazin-1-yl)-6-isopropyl-4-(methyl(quinolin-3-ylmethyl)amino)-5H-pyrrolo[3,4-d]pyrimidin-7(6H)-one]
IC50: 47 nM

CC(C)N1Cc2c(NCc3cnc4ccccc4c3)nc(N3CCC(N(C)C)C3)nc2C1=O (centres unmarked) [Example 213, 2-(3-dimethylaminopyrrolidin-1-yl)-6-isopropyl-4-(3-quinolylmethylamino)-5H-pyrrolo[3,4-d]pyrimidin-7-one]
IC50: 1100 nM

CC(C)N1Cc2c(NCc3cnc4ccccc4c3)nc(N3CCn4cnnc4C3)nc2C1=O [Example 137, 2-(5,6-Dihydro-[1,2,4]triazolo[4,3-a]pyrazin-7(8H)-yl)-6-isopropyl-4-(quinolin-3-ylmethylamino)-5H-pyrrolo[3,4-d]pyrimidin-7(6H)-one]
IC50: 680 nM

CC(=O)N(Cc1cc2ccccc2cn1)c1nc(N2CCN(C(C)=O)[C@@H](C)C2)nc2c1CN(C(C)C)C2=O [Example 325, (S)—N-(2-(4-acetyl-3-methylpiperazin-1-yl)-6-isopropyl-7-oxo-6,7-dihydro-5H-pyrrolo[3,4-d]pyrimidin-4-yl)-N-(isoquinolin-3-ylmethyl)acetamide]
IC50: 380 nM

CC(=O)N1CCN(c2nc3c(c(N(Cc4ccccc4)Cc4ccccc4)n2)CN(C(C)C)C3=O)CC1 [Example 95, 2-(4-Acetyl-piperazin-1-yl)-4-dibenzylamino-6-isopropyl-5,6-dihydro-pyrrolo[3,4-d]-pyrimidin-7-one]
IC50: 430 nM

CC(=O)N1CCN(c2nc3c(c(N4CCOC(C)(c5ccc(Cl)cc5)C4)n2)CN(C(C)C)C3=O)CC1 (centres unmarked) [Example 123, 2-(4-acetylpiperazin-1-yl)-4-[2-(4-chlorophenyl)-2-methylmorpholin-4-yl]-6-isopropyl-5,6-dihydro-7H-pyrrolo[3,4-d]pyrimidin-7-one]
IC50: 9100 nM

CC(C)N1Cc2c(NC(c3ccccc3)c3ccc(Cl)cc3)nc(N(C)CCN(C)C)nc2C1=O (centres unmarked) [Example 19, 4-{[(4-chlorophenyl)(phenyl)methyl]amino}-2-[[2-(dimethylamino)ethyl](methyl)amino]-6-isopropyl-5,6-dihydro-7H-pyrrolo[3,4-d]pyrimidin-7-one]
IC50: 93 nM

CCOc1ccc([C@@H](C)Nc2nc(N3CCN(C(C)=O)CC3)nc3c2CN(C(C)C)C3=O)cc1C [Example 167, (R)-2-(4-acetylpiperazin-1-yl)-4-(1-(4-ethoxy-3-methylphenyl)ethylamino)-6-isopropyl-5H-pyrrolo[3,4-d]pyrimidin-7(6H)-one]
IC50: 65 nM

CCN1CCN(c2nc(NC(c3ccccc3)c3ccc(C)cc3)c3c(n2)C(=O)N(C(C)C)C3)CC1 (centres unmarked) [Example 101, 2-(4-Ethyl-piperazin-1-yl)-6-isopropyl-4-[(phenyl-p-tolyl-methyl)-amino]-5,6-dihydro-pyrrolo[3,4-d]-pyrimidin-7-one]
IC50: 150 nM

CC(=O)N1CCN(c2nc(NC(C)Cc3ccc(F)cc3)c3c(n2)C(=O)N(C(C)C)C3)CC1 (centres unmarked) [Example 12, 2-(4-acetylpiperazin-1-yl)-4-{[2-(4-fluorophenyl)-1-methylethyl]amino}-6-isopropyl-5,6-dihydro-7H-pyrrolo[3,4-d]pyrimidin-7-one]
IC50: 3900 nM

CC(C)N1Cc2c(NCc3cnc4ccccc4c3)nc(NCCS(C)(=O)=O)nc2C1=O [Example 215, 6-isopropyl-2-(2-methylsulfonylethylamino)-4-(3-quinolylmethylamino)-5H-pyrrolo[3,4-d]pyrimidin-7-one]
IC50: 2000 nM

CC(=O)N1CCN(c2nc(NCc3ccc(-c4ccccc4)nc3)c3c(n2)C(=O)N(C(C)C)C3)CC1 [Example 228, 2-(4-acetylpiperazin-1-yl)-6-isopropyl-4-((6-phenylpyridin-3-yl)methylamino)-5H-pyrrolo[3,4-d]pyrimidin-7(6H)-one]
IC50: 8800 nM

CC(C)N1Cc2c(NC3c4cccnc4CCc4c(F)cccc43)nc(NCCN(C)C)nc2C1=O (centres unmarked) [Example 21, 2-{[2-(dimethylamino)ethyl]amino}-4-[(9-fluoro-10,11-dihydro-5H-benzo[4,5]cyclohepta[1,2-b]pyridin-5-yl)amino]-6-isopropyl-5,6-dihydro-7H-pyrrolo[3,4-d]pyrimidin-7-one]
IC50: 140 nM

CC(=O)N1CCN(c2nc(NCc3ccc4ccccc4n3)c3c(n2)C(=O)N(C(C)C)C3)CC1 [Example 248, 2-(4-acetylpiperazin-1-yl)-6-isopropyl-4-(quinolin-2-ylmethylamino)-5H-pyrrolo[3,4-d]pyrimidin-7(6H)-one]
IC50: 6300 nM

CC(=O)N1CCN(c2nc(NC(C)c3ccc(C(C)(C)C#N)c(F)c3)c3c(n2)C(=O)N(C(C)C)C3)CC1 (centres unmarked) [Example 163, 2-(4-(1-(2-(4-acetylpiperazin-1-yl)-6-isopropyl-7-oxo-6,7-dihydro-5H-pyrrolo[3,4-d]pyrimidin-4-ylamino)ethyl)-2-fluorophenyl)-2-methylpropanenitrile]
IC50: 1700 nM

COc1ccccc1CC(C)(C)Nc1nc(N2CCN(C(C)=O)CC2)nc2c1CN(C(C)C)C2=O [Example 195, 2-(4-acetylpiperazin-1-yl)-6-isopropyl-4-(1-(2-methoxyphenyl)-2-methylpropan-2-ylamino)-5H-pyrrolo[3,4-d]pyrimidin-7(6H)-one]
IC50: 18000 nM

COCC(C)N1Cc2c(NC(C)(C)Cc3ccc(F)cc3)nc(N3CCN(C(C)=O)CC3)nc2C1=O (centres unmarked) [Example 314, 2-(4-acetylpiperazin-1-yl)-4-(1-(4-fluorophenyl)-2-methylpropan-2-ylamino)-6-(1-methoxypropan-2-yl)-5H-pyrrolo[3,4-d]pyrimidin-7(6H)-one]
IC50: 670 nM

CC(=O)N1CCN(c2nc3c(c(N(Cc4cc5ccccc5cn4)CC(F)(F)F)n2)CN(C(C)C)C3=O)CC1 [Example 264, 2-(4-acetylpiperazin-1-yl)-6-isopropyl-4-((isoquinolin-3-ylmethyl)(2,2,2-trifluoroethyl)amino)-5H-pyrrolo[3,4-d]pyrimidin-7(6H)-one]
IC50: 2900 nM

CC(C)N1Cc2c(NC(C)(C)Cc3ccc(Cl)cc3)nc(N3C[C@@H](C)O[C@@H](C)C3)nc2C1=O [Example 61, 4-{[2-(4-chlorophenyl)-1,1-dimethylethyl]amino}-2-[(2R,6S)-2,6-dimethylmorpholin-4-yl]-6-isopropyl-5,6-dihydro-7H-pyrrolo[3,4-d]pyrimidin-7-one]
IC50: 1400 nM
